Assay results as given in paper PMC10669118 (2023).

Tests used:
[1] = tested on: 22CTA (DNA, G4) AGGGCTAGGGCTAGGGCTAGGG; experiment: FRET melting; settings: 10 mM KCl, 20 mM sodium phosphate, pH 7.4, 20 µM compound
[2] = tested on: 22AG (DNA, G4) AGGGTTAGGGTTAGGGTTAGGG; experiment: FRET melting; settings: 10 mM KCl, 20 mM sodium phosphate, pH 7.4, 20 µM compound; for binding: 1 µM DNA (legend of Figure 3 prints them reversed)
[3] = tested on: cKit1 (HEX) (DNA, G4) GGGAGGGCGCTGGGAGGAGGG; experiment: microscale thermophoresis; settings: 10 mM KCl, 20 mM sodium phosphate; pH 7.4, 22 °C, DMSO and Tween 20; said to be submicromolar
[4] = tested on: STAT (HEX) (DNA, G4) GGGCTGGGGATGGGGAGGGGG; experiment: microscale thermophoresis; settings: 10 mM KCl, 20 mM sodium phosphate; pH 7.4, 22 °C, DMSO and Tween 20; said to be submicromolar
[5] = tested on: STAT (DNA, G4) GGGCTGGGGATGGGGAGGGGG; experiment: FRET melting; settings: 10 mM KCl, 20 mM sodium phosphate; pH 7.4; 20 µM compound, 1 µM DNA
[6] = tested on: Ct1 (DNA, G4) GGTGACAGGGGTATGGGGAGGGG; experiment: FRET melting; settings: 10 mM KCl, 20 mM sodium phosphate; pH 7.4; 20 µM compound, 1 µM DNA
[7] = tested on: Hair (DNA, hairpin) GTATAGCTATTTTTATAGCTATA; experiment: FRET melting; settings: 10 mM KCl, 20 mM sodium phosphate; pH 7.4; 20 µM compound, 1 µM DNA
[8] = tested on: BclT (DNA, G4) GGGGGCCGTGGGGTGTGAGCTGGGG; experiment: FRET melting; settings: 10 mM KCl, 20 mM sodium phosphate; pH 7.4; 20 µM compound, 1 µM DNA
[9] = tested on: cKit1 (DNA, G4) GGGAGGGCGCTGGGAGGAGGG; experiment: FRET melting; settings: 10 mM KCl, 20 mM sodium phosphate; pH 7.4; 20 µM compound, 1 µM DNA
[10] = tested on: VEGF (DNA, G4) GGGAGGGTTGGGGTGGG; experiment: FRET melting; settings: 25 mM LiCl, 5 mM sodium phosphate; pH 7.4; 20 µM compound, 1 µM DNA
[11] = tested on: cMyc (DNA, G4) TGAGGGTGGGTAGGGTGGGTAA; experiment: FRET melting; settings: 10 mM KCl, 20 mM sodium phosphate; pH 7.4; 20 µM compound, 1 µM DNA

Which results are given for `NCCNC(=O)COc1cc2nc3ccn(CC(=O)NCCN)c(=O)n3c2c2ccccc12`?
binding ([1]; 1 µM DNA (legend of Figure 3 prints them reversed)): yes; binding [2]: yes; Kd [3]: 500 nM

With `NCCNC(=O)Cn1ccc2nc3cc(O)c4ccccc4c3n2c1=O` as the compound, how does the Kd [4] read?
The Kd was 500 nM.

What about the Kd [3] of the same compound?
The Kd was 600 nM.

`N=C(N)NCCNC(=O)COc1cc2nc3ccn(CC(=O)NCCNC(=N)N)c(=O)n3c2c2ccccc12` was tested. Which binding [2] did it give?
Its binding is “yes”.

Which ΔTm [5] does the source give for `NCCNC(=O)Cn1ccc2nc3cc(O)ccc3n2c1=O` here?
Its ΔTm is 1 ± 2 °C.

And the ΔTm [6]?
The ΔTm was 2 ± 2 °C.

What about the ΔTm [7] of the same compound?
The ΔTm was -1 ± 2 °C.

What about the ΔTm [8] of the same compound?
Its ΔTm is 0 ± 2 °C.

What about the ΔTm ([1]; 1 µM DNA) of the same compound?
Its ΔTm is 1 ± 2 °C.

What about the ΔTm [9] of the same compound?
Its ΔTm is 3 ± 2 °C.

What about the ΔTm ([2]; 1 µM DNA) of the same compound?
The ΔTm was 1 ± 2 °C.

What about the ΔTm [10] of the same compound?
The ΔTm was 1 ± 2 °C.

And the ΔTm [11]?
Its ΔTm is 1 ± 2 °C.

`CN(C)CCNC(=O)COc1ccc2c(c1)nc1ccn(CC(=O)NCCN(C)C)c(=O)n12` was tested. Which Kd [4] did it give?
The Kd was 400 nM.
